Assay results reported in patent US9951065B2 (Gilead Sciences, Inc., priority 2015, dated 2018).

Target: T1, IDO1 (Homo sapiens, UniProt P14902)
T1 construct: HeLa cells were treated with a test compound in the presence of IFNγ, which induces IDO1 expression; host or cells: H1-HeLa cells, IDO1 induced with IFNγ
Test: Cell-based (HeLa) assay for measurement of IDO1 inhibition (kynurenine levels in supernatant after IFNγ induction)
Conditions: HeLa cells, IFNγ-induced IDO1, kynurenine in supernatant after 48 hour incubation; geometric mean of a minimum of four determinations
Procedure, shortened: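 HeLa cells, 1,250 per well, treated with compound (0.5% DMSO final) plus IFNγ to induce IDO1, for 48 h. Supernatant kynurenine measured by TCA hydrolysis at 60 °C, then p-dimethylaminobenzaldehyde, absorbance 480 nm. EC50 from a four-parameter fit normalized to −/+IFNγ controls; geometric mean of at least four runs.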

T1 sequence (P14902 whole entry): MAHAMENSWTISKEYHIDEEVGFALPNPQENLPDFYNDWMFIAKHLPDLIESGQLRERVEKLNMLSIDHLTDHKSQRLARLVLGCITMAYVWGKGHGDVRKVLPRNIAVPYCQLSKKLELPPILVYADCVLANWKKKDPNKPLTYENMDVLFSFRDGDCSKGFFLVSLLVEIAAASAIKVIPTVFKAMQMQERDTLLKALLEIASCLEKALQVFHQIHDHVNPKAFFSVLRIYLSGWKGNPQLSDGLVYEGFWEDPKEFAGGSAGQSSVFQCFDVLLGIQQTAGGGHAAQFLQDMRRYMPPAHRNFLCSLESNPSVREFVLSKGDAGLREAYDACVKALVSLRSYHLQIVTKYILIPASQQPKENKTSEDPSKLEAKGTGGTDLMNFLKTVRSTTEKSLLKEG

Structure (SMILES)	EC50
O/N=C(\Nc1ccc(F)c(Cl)c1)c1ccnc2nc(CCN3CCOCC3)[nH]c12 [Example 191, N-(3-Chloro-4-fluorophenyl)-N′-hydroxy-2-(2-morpholinoethyl)-1H-imidazo[4,5-b]pyridine-7-carboximidamide]	2820 nM
CN(C)CCc1nc2nccc(/C(=N/O)Nc3ccc(F)c(Br)c3)c2[nH]1 [Example 263, N-(3-bromo-4-fluorophenyl)-2-(2-(dimethylamino)ethyl)-N′-hydroxy-1H-imidazo[4,5-b]pyridine-7-carboximidamide]	559 nM
NC(=O)CCNc1nc2c(F)c(F)cc(/C(=N/O)Nc3ccc(F)c(Cl)c3)c2[nH]1 [Example 229]	> 10000 nM
CN(C)CCc1nc2c(/C(=N/O)Nc3cccc(Br)c3)cc(F)c(F)c2[nH]1 [Example 55, N-(3-Bromophenyl)-2-(2-(dimethylamino)ethyl)-6,7-difluoro-N′-hydroxy-1H-benzo[d]imidazole-4-carboximidamide]	379 nM
COC(=O)NCCc1nc2nccc(/C(=N/O)Nc3ccc(F)c(Cl)c3)c2[nH]1 [Example 273, Methyl (2-(7-(N-(3-chloro-4-fluorophenyl)-N′-hydroxycarbamimidoyl)-1H-imidazo[4,5-b]pyridin-2-yl)ethyl)carbamate]	> 10000 nM
O/N=C(\Nc1ccc(F)c(Cl)c1)c1ccnc2nc(CN3CCCCC3)[nH]c12 [Example 140, N-(3-Chloro-4-fluorophenyl)-N′-hydroxy-2-(piperidin-1-ylmethyl)-1H-imidazo[4,5-b]pyridine-7-carboximidamide]	1610 nM
O/N=C(\Nc1cccc(Br)c1)c1ccnc2nc(CCN3CCCCC3)[nH]c12 [Example 272, N-(3-bromophenyl)-N′-hydroxy-2-(2-(piperidin-1-yl)ethyl)-1H-imidazo[4,5-b]pyridine-7-carboximidamide]	477 nM
O/N=C(\Nc1ccc(F)c(Cl)c1)c1ccnc2nc(CN3CCOCC3)[nH]c12 [Example 112, N-(3-Chloro-4-fluorophenyl)-N′-hydroxy-2-(morpholinomethyl)-1H-imidazo[4,5-b]pyridine-7-carboximidamide]	9530 nM

Further lines, results first:

EC50	Structure (SMILES)
3840 nM	O/N=C(\Nc1ccc(F)c(Cl)c1)c1ccnc2nc(NCCNCC(F)F)[nH]c12 [Example 230, N-(3-chloro-4-fluorophenyl)-2-((2-((2,2-difluoroethyl)amino)ethyl)amino)-N′-hydroxy-1H-imidazo[4,5-b]pyridine-7-carboximidamide]
2190 nM	O/N=C(\Nc1ccc(F)c(Cl)c1)c1ccnc2nc(NC3CCOC3)[nH]c12 (stereo not shown) [Example 227, N-(3-chloro-4-fluorophenyl)-N′-hydroxy-2-((tetrahydrofuran-3-yl)amino)-1H-imidazo[4,5-b]pyridine-7-carboximidamide]
570 nM	Nc1nc2c(F)c(F)cc(/C(=N/O)Nc3cccc(Br)c3)c2[nH]1 [Example 15, 2-Amino-N-(3-bromophenyl)-4,5-difluoro-N′-hydroxy-1H-benzo[d]imidazole-7-carboximidamide]
1780 nM	NCCc1nc2nccc(/C(=N/O)Nc3ccc(F)c(Cl)c3)c2[nH]1 [Example 189, 2-(2-Aminoethyl)-N-(3-chloro-4-fluorophenyl)-N′-hydroxy-1H-imidazo[4,5-b]pyridine-7-carboximidamide]
373 nM	O/N=C(\Nc1cccc(C(F)(F)F)c1)c1ccnc2nc[nH]c12 [Example 73, N′-Hydroxy-N-(3-(trifluoromethyl)phenyl)-1H-imidazo[4,5-b]pyridine-7-carboximidamide]

Same assay, conditions: HeLa cells, IFNγ-induced IDO1, kynurenine in supernatant, 48 hour incubation; geometric mean of a minimum of four determinations

Structure (SMILES)	EC50
O=S(=O)(NCCNc1nc2c(F)c(F)cc(/C(=N/O)Nc3ccc(F)c(Cl)c3)c2[nH]1)C1CC1 [Example 336, N-(3-chloro-4-fluorophenyl)-2-((2-(cyclopropanesulfonamido)ethyl)amino)-4,5-difluoro-N′-hydroxy-1H-benzo[d]imidazole-7-carboximidamide]	> 10000 nM
CN(C)CCNc1nc2c(F)ccc(/C(=N/O)Nc3cccc(Br)c3)c2[nH]1 [Example 383, N-(3-bromophenyl)-2-((2-(dimethylamino)ethyl)amino)-4-fluoro-N′-hydroxy-1H-benzo[d]imidazole-7-carboximidamide]	319 nM
CN(C)CCNc1nc2c(F)c(F)cc(/C(=N/O)Nc3ccc(F)c(Br)c3)c2[nH]1 [Example 432, N-(3-bromo-4-fluorophenyl)-2-((2-(dimethylamino)ethyl)amino)-4,5-difluoro-N′-hydroxy-1H-benzo[d]imidazole-7-carboximidamide]	253 nM
CC(CN(C)C)c1nc2nccc(/C(=N/O)Nc3ccc(F)c(Cl)c3)c2[nH]1 (stereo not shown) [Example 326, N-(3-chloro-4-fluorophenyl)-2-(1-(dimethylamino)propan-2-yl)-N′-hydroxy-1H-imidazo[4,5-b]pyridine-7-carboximidamide]	4050 nM
Cn1nccc1CNc1nc2nccc(/C(=N/O)Nc3ccc(F)c(Cl)c3)c2[nH]1 [Example 358, N-(3-chloro-4-fluorophenyl)-N′-hydroxy-2-(((1-methyl-1H-pyrazol-5-yl)methyl)amino)-1H-imidazo[4,5-b]pyridine-7-carboximidamide]	8790 nM
CC(CN(C)C)Nc1nc2c(F)c(F)cc(/C(=N/O)Nc3ccc(F)c(Cl)c3)c2[nH]1 (stereo not shown) [Example 378, N-(3-chloro-4-fluorophenyl)-2-((1-(dimethylamino)propan-2-yl)amino)-4,5-difluoro-N′-hydroxy-1H-benzo[d]imidazole-7-carboximidamide]	1400 nM
CN1CCCC(Nc2nc3c(F)c(F)cc(/C(=N/O)Nc4ccc(F)c(Cl)c4)c3[nH]2)C1 (stereo not shown) [Example 443, N-(3-chloro-4-fluorophenyl)-4,5-difluoro-N′-hydroxy-2-((1-methylpiperidin-3-yl)amino)-1H-benzo[d]imidazole-7-carboximidamide]	389 nM
CN(C)c1ccccc1CNc1nc2c(F)c(F)cc(/C(=N/O)Nc3ccc(F)c(Cl)c3)c2[nH]1 [Example 348, N-(3-chloro-4-fluorophenyl)-2-((2-(dimethylamino)benzyl)amino)-4,5-difluoro-N′-hydroxy-1H-benzo[d]imidazole-7-carboximidamide]	3430 nM
CN(C)C1(CNc2nc3c(F)c(F)cc(/C(=N/O)Nc4ccc(F)c(Cl)c4)c3[nH]2)CCC1 [Example 441, N-(3-chloro-4-fluorophenyl)-2-(((1-(dimethylamino)cyclobutyl)methyl)amino)-4,5-difluoro-N′-hydroxy-1H-benzo[d]imidazole-7-carboximidamide]	> 10000 nM

Continued, values first:

EC50	Structure (SMILES)
1490 nM	O/N=C(\Nc1ccc(F)c(Cl)c1)c1cc(F)c(F)c2nc(N[C@@H]3CCCNC3)[nH]c12 [Example 446, (R)—N-(3-chloro-4-fluorophenyl)-4,5-difluoro-N′-hydroxy-2-(piperidin-3-ylamino)-1H-benzo[d]imidazole-7-carboximidamide]
1520 nM	O/N=C(\Nc1ccc(F)c(Cl)c1)c1cc(F)c(F)c2nc(NC3CNCCOC3)[nH]c12 (stereo not shown) [Example 477, 2-((1,4-oxazepan-6-yl)amino)-N-(3-chloro-4-fluorophenyl)-4,5-difluoro-N′-hydroxy-1H-benzo[d]imidazole-7-carboximidamide]
> 10000 nM	NS(=O)(=O)NCCNc1nc2c(F)c(F)cc(/C(=N/O)Nc3ccc(F)c(Cl)c3)c2[nH]1 [Example 338, N-(3-chloro-4-fluorophenyl)-4,5-difluoro-N′-hydroxy-2-((2-(sulfamoylamino)ethyl)amino)-1H-benzo[d]imidazole-7-carboximidamide]
